Results from patent US20240139207A1, “METHODS FOR TREATING PULMONARY HYPERTENSION” (United Therapeutics Corporation, priority 2022, published 2024).

What was measured:
[1] = tested on: patients with pulmonary arterial hypertension; assay: Phase 4 open-label 16-week study: safety and tolerability, prostanoid-related adverse events; type: in vivo, human
Procedure: Safety and tolerability were assessed at each scheduled visit and in between visits as needed throughout the duration of the study. Tolerability measures of interest included incidence of all adverse events (AEs) and prostanoid-related AEs including headache, diarrhea, nausea, vomiting, flushing, jaw pain and extremity pain. […] Prostanoid-related events captured by the survey were only recorded if the event was unusual with respect to intensity, frequency, or duration compared to symptoms in the patient's medical history. Patient compliance with taking oral treprostinil was assessed by performing study drug accountability at each scheduled study visit. The primary endpoint and all efficacy endpoints were analyzed using the per-protocol population, which included all patients without major protocol deviations unless otherwise specified. The exact (Clopper-Pearson) 95% confidence interval was calculated for the primary endpoint. […] For continuous variables, descriptive statistics are reported as median (interquartile range, IQR or range) or mean (±standard deviation, SD). For categorical variables, descriptive statistics include frequency and percentage of patients in each category. Changes from baseline to Week 16 for continuous variables were analyzed using Wilcoxon signed rank test. The change in FC from baseline to Week 16 was analyzed using McNemar's test. The p-values from these tests were derived for descriptive purposes and not part of a formal hypothesis testing framework.

[2] = tested on: patients with pulmonary arterial hypertension; assay: Phase 4 open-label 16-week study: echocardiography parameters; type: in vivo, human
From the text: Based on the 2015 ESC/ERS Guidelines, specific hemodynamic inclusion criteria included a mean pulmonary arterial pressure ≥25 mmHg, pulmonary artery wedge pressure or left ventricular end-diastolic pressure ≤15 mmHg, and pulmonary vascular resistance >3 Wood units, in the absence of unrepaired congenital heart disease. Other key inclusion criteria were World Health Organization functional class (FC) II or III, 6-minute walk distance (6MWD)≥250 m, and a REVEAL 2.0 risk score ≤9 (Benza et al. 2021, DOI: https://doi.org/10.1016/j.chest.2020.08.2069). Patients could be receiving up to two oral PAH background therapies if taken at a stable dose for ≥30 days prior to baseline. As this study focused on the addition of a new therapy rather than the replacement of one therapy by another therapy, participants were eligible regardless of the number of pulmonary arterial hypertension background therapies (0, 1, or 2) they were receiving at baseline. […] Baseline assessments were collected up to 14 days prior to initiation of parenteral treprostinil, and included hemodynamics via echocardiogram and RHC, FC, N-terminal-pro brain natriuretic peptide (NT-proBNP), 6MWD, and medication history. Of note, historical RHC data could be used for baseline assessments if performed up to 180 days prior to initiating parenteral treprostinil. Echocardiograms were uploaded and stored in a central repository and evaluated by an independent central reader in accordance with the American Society of Echocardiography Guidelines (Bossone et al., DOI: 10.1016/j.echo.2012.10.009).
Once patients reached at least 20 ng/kg/min and were deemed suitable for transition based on physician assessment, they were transitioned at Week 2,4, or 8 to oral treprostinil via cross-titration in an inpatient or outpatient setting over 1-21 days. All participants still receiving parenteral treprostinil at Week 8 began transitioning to oral treprostinil regardless of their parenteral treprostinil dose unless deemed unsuitable for transition by their clinician. Before transition, 6MWD, WHO FC, NT-proBNP, and echocardiography parameters were assessed.
The primary endpoint was the percentage of patients who achieved an oral treprostinil TDD of at least 12 mg (0.171 mg/kg for patients <70 kg) at Week 16. Secondary endpoints included change from baseline to Week 16 in risk strata and clinical parameters, where baseline values were collected within 14 days prior to parenteral treprostinil initiation. Changes in risk strata for FC, NT-proBNP, 6MWD, and right atrial (RA) area were assessed using the 2015 ESC/ERS Guidelines, which categorizes risk for each determinant as low, intermediate, and high (Galiè et al., 2016). Clinical parameters of interest included FC, NT-proBNP, 6MWD, echocardiography parameters, REVEAL Lite 2 score (Benza et al., 2021), and Borg Dyspnea Score (Borg, 1982, DOI: https://doi.org/10.1249/00005768-198205000-00012). The REVEAL Lite 2 score includes clinical parameters to determine the risk status (low, intermediate, and high) for pulmonary arterial hypertension. The Borg Dyspnea Score ranges from 0 to 10, where 0 indicates no dyspnea and 10 indicates very, very heavy (almost maximal) dyspnea. Patient-reported outcomes were assessed using the emPHasis-10 quality of life questionnaire (Yorke et al., 2014, DOI: 10.1183/09031936.00127113) and the Pulmonary Arterial Hypertension Symptom Scale (PAHSS) (Matura et al., 2015, DOI: https://doi.org/10.1016/j.apnr.2014.04.001). The Treatment Satisfaction Questionnaire for Medication (TSQM) (Atkinson et al., 2004, DOI: https://doi.org/10.1186/1477-7525-2-12) was used to measure patient satisfaction with their medication over the last two to three weeks; higher scores indicate greater satisfaction. EmPHasis-10 scores can range from 0 to 50, where lower scores indicate better quality of life. […]

[3] = tested on: Pulmonary hypertension patients; conditions: cited from earlier work
[4] = Oral Treprostinil Phase (After Transition), n = 32
[5] = per-protocol population (n=29), while on the labelled form

SMILES: CCCCC[C@H](O)CC[C@@H]1[C@H]2Cc3cccc(OCC(=O)O)c3C[C@H]2C[C@H]1O [oral treprostinil, treprostinil]
- Diarrhea, patients with AE [1, 4]: 17 (53) n (%)
- Extremity pain, patients with AE [1, 4]: 11 (34) n (%)
- Flushing, patients with AE [1, 4]: 17 (53) n (%)
- Headache, patients with AE [1, 4]: 19 (59) n (%)
- Jaw pain, patients with AE [1, 4]: 16 (50) n (%)
- Nausea, patients with AE [1, 4]: 21 (66) n (%)
- Vomiting, patients with AE [1, 4]: 9 (28) n (%)
- adverse events headache, nausea, and vomiting ([1]; after transition from Remodulin to Orenitram): tended to improve
- use of all concomitant medications ([1]; after transitioning from parenteral to oral treprostinil): decreased
- bothersomeness of extremity pain, jaw pain and headache ([1]; after transitioning to oral treprostinil, scale 1 bothers me a lot to 4 not at all bothersome): not at all bothersome
- most bothersome AE ([1]; during the phase of the labelled form): diarrhea and nausea
- participants who received acetaminophen for prostacyclin-related headache [1, 5]: 38%
- participants who received loperamide for prostacyclin-related diarrhea [1, 5]: 38%
- participants who received ondansetron for prostacyclin-related nausea/vomiting [1, 5]: 48%
- tolerability ([1]; three times daily): well tolerated
- Cardiac output, median ([2]; Week 16): 4.9 L/min
- Heart rate, median ([2]; Week 16): 76 bpm
- LV diameter, median ([2]; Week 16): 44.9 mm
- LV eccentricity, diast., median ([2]; Week 16): 1.0
- LV eccentricity, syst., median ([2]; Week 16): 1.2
- LVOT integral, median ([2]; Week 16): 19.5 cm
- LVOT, median ([2]; Week 16): 19.6 mm
- PVAT, median ([2]; Week 16): 89.9 ms
- RA area, median ([2]; Week 16): 17.5 cm^2
- RV MPI, median ([2]; Week 16): 0.4
- RV diameter, median ([2]; Week 16): 24.8 mm
- RV wall strain, median ([2]; Week 16): −19.2%
- RV/LV ratio, diastole, median ([2]; Week 16): 0.6
- TAPSE, median ([2]; Week 16): 19.9 mm
- Cardiac output, median Change from Baseline ([2]; baseline to Week 16): +0.5 L/min
- Heart rate, median Change from Baseline ([2]; baseline to Week 16): +2 bpm
- LV diameter, median Change from Baseline ([2]; baseline to Week 16): +3.5 mm
- LV eccentricity, diast., median Change from Baseline ([2]; baseline to Week 16): 0.0
- LV eccentricity, syst., median Change from Baseline ([2]; baseline to Week 16): +0.1
- LVOT integral, median Change from Baseline ([2]; baseline to Week 16): +0.9 cm
- LVOT, median Change from Baseline ([2]; baseline to Week 16): +0.4 mm
- PVAT, median Change from Baseline ([2]; baseline to Week 16): +4.4 ms
- RA area, median Change from Baseline ([2]; baseline to Week 16): −2.9 cm^2
- RV MPI, median Change from Baseline ([2]; baseline to Week 16): −0.1
- RV diameter, median Change from Baseline ([2]; baseline to Week 16): −2.6 mm
- RV wall strain, median Change from Baseline ([2]; baseline to Week 16): +1.3%
- RV/LV ratio, diastole, median Change from Baseline ([2]; baseline to Week 16): −0.1
- TAPSE, median Change from Baseline ([2]; baseline to Week 16): +1.2 mm
- outcomes, including 6-minute walk distances, in patients who attained higher total daily doses [3]: better outcomes
